Laboratory results taken from patent US20210255193A1, “LYSINE REACTIVE PROBES AND USES THEREOF” (The Scripps Research Institute, priority 2017, published 2021).

What was measured:
Experiment in all cases: competitive isoTOP-ABPP
Type in all cases: binding
[1] = molecular target: T1, ERAP1 Endoplasmic reticulum aminopeptidase 1 (Homo sapiens, UniProt Q9NZ08); details: for isoTOP-ABPP ratio (R) at liganded lysine Q9NZ08_K685: sol, 231
T1 construct: endogenous in cells; host or cells: MDA-MB-231 lysate
T1 sequence (Q9NZ08 whole entry): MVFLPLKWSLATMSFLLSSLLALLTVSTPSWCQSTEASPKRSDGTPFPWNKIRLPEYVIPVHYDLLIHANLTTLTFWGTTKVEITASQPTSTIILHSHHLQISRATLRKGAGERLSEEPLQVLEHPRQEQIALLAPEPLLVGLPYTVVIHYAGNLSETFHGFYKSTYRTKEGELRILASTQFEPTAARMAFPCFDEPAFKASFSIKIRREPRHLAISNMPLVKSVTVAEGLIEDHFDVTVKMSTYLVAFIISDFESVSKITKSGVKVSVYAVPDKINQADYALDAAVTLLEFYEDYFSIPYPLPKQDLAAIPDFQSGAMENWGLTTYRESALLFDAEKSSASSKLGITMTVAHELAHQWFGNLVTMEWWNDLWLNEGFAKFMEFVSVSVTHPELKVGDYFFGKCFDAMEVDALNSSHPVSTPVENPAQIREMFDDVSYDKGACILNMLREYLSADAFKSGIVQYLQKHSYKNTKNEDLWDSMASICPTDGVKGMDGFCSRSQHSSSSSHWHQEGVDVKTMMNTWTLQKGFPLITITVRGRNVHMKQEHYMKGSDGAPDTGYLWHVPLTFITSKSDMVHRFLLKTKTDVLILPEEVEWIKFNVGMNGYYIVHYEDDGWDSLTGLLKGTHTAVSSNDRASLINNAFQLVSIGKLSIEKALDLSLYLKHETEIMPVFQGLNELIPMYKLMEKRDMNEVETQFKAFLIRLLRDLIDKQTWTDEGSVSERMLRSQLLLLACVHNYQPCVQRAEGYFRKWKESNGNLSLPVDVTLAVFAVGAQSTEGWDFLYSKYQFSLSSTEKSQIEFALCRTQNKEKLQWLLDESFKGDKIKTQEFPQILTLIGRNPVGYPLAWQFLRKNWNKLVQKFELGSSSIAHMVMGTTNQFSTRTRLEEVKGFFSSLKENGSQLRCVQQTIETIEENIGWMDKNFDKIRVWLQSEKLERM
Method in brief: (§1)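 Cell lysate (0.5 ml) was pre-treated with fragment, 50 μM for activated esters or 100 μM for guanidinylating agents, versus DMSO, then labeled 1 h at ambient temperature with 0.1 mM STP-alkyne. Light/heavy TEV tags attached by CuAAC; R = DMSO/compound MS1 peak-area ratio, median per lysine.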

[2] = molecular target: T2, RQCD1 Cell differentiation protein RCD1 homolog (Homo sapiens, UniProt Q92600); details: 50 uM, in vitro; for isoTOP-ABPP ratio (R) at liganded lysine Q92600_K230: sol, 231
T2 construct: isoTOP-ABPP experiments performed in cell lysates (in vitro); endogenous in cells; host or cells: soluble proteome of human cancer cell lines (MDA-MB-231; Ramos and Jurkat also prepared)
T2 sequence (Q92600 whole entry): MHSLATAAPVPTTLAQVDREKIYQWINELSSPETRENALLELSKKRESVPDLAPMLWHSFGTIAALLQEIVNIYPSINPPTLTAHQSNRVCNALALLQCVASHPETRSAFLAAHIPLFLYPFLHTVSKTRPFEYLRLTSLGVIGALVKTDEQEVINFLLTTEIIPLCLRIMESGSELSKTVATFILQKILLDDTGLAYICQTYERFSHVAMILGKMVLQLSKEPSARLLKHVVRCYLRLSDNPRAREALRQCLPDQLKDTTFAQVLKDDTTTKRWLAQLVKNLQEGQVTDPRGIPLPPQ
Method in brief: as §1

[3] = molecular target: T3, MTOR Serine/threonine-protein kinase mTOR (Homo sapiens, UniProt P42345)
T3 construct: isoTOP-ABPP experiments performed in cell lysates (in vitro); endogenous in cells; host or cells: soluble proteome of human cancer cell lines (MDA-MB-231; Ramos and Jurkat also prepared)
Method in brief: as §1

LMNA Prelamin-A/C = molecular target: T4, LMNA Prelamin-A/C (Homo sapiens, UniProt P02545); details: for isoTOP-ABPP ratio (R) at liganded lysine P02545_K135: sol, 231
T4 construct: isoTOP-ABPP experiments performed in cell lysates (in vitro); endogenous in cells; host or cells: MDA-MB-231 soluble lysate
T4 sequence (P02545 1-664): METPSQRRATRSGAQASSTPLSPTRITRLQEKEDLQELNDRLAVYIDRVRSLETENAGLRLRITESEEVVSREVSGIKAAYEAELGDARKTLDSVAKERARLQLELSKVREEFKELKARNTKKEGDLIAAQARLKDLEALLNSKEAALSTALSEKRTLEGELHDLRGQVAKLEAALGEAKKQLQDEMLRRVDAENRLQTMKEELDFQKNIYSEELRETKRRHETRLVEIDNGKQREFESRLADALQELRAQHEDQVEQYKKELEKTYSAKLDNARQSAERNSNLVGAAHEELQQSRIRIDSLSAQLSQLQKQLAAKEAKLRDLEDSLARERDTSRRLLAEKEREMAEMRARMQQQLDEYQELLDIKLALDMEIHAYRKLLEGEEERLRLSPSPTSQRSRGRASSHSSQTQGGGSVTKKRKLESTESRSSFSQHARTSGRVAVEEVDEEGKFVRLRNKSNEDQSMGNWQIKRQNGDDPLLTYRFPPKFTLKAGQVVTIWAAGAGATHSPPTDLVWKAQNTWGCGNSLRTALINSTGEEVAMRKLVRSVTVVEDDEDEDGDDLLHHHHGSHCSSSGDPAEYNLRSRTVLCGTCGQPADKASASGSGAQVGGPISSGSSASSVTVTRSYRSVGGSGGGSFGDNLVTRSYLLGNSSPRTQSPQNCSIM
Method in brief: as §1

[4] = molecular target: T5, UCHL5 Ubiquitin carboxyl-terminal hydrolase isozyme L5 (Homo sapiens, UniProt Q9Y5K5); details: for isoTOP-ABPP reactivity ratio at lysine Q9Y5K5_K323 / isoTOP-ABPP ratio (R) at liganded lysine Q9Y5K5_K323: 50 uM, in vitro; for isoTOP-ABPP reactivity ratio at lysine Q9Y5K5_K323: 231 sol; for isoTOP-ABPP ratio (R) at liganded lysine Q9Y5K5_K323: sol, 231
T5 construct: endogenous in cells; host or cells: MDA-MB-231 (soluble fraction of lysate)
T5 sequence (Q9Y5K5 1-329): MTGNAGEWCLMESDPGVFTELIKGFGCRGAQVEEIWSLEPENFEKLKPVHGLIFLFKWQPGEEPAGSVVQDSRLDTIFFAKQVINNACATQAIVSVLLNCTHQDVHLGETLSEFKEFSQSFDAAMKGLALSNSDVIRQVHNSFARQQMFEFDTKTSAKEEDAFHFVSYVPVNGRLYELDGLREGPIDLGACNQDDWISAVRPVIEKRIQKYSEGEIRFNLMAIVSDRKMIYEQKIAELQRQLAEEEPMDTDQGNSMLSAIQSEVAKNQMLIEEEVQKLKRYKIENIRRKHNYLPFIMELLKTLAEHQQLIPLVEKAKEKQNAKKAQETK
Method in brief: as §1

| isoTOP-ABPP reactivity ratio at lysine Q9NZ08_K685 ([1]; 50 uM, 231 sol, in vitro) | isoTOP-ABPP reactivity ratio at lysine Q9Y5K5_K323 [4] | isoTOP-ABPP reactivity ratio at lysine P42345_K2066 ([3]; 50 uM, 231 sol, in vitro) | Structure (SMILES) | isoTOP-ABPP ratio (R) at liganded lysine Q92600_K230 [2] | isoTOP-ABPP ratio (R) at liganded lysine Q9Y5K5_K323 [4] | isoTOP-ABPP ratio (R) at liganded lysine P02545_K135 (LMNA Prelamin-A/C; 50 uM, in vitro) | other results |
| --- | --- | --- | --- | --- | --- | --- | --- |
| – | – | – | COc1cc(CCC(=O)Oc2c(F)c(F)c(F)c(F)c2F)cc(OC)c1OC [fragment 23, Pentafluorophenyl 3-(3,4,5-trimethoxyphenyl)propanoate] | – | – | – | R value (DMSO/fragment) for probe 1 labeling ([1]; Q9NZ08_K685, 50 uM, 231 sol, in vitro): 1.7; R value (DMSO/fragment) for probe 1 labeling ([2]; Q92600_K230, 231 sol): 1.1; R value (DMSO/fragment) for probe 1 labeling ([3]; P42345_K2066, 50 uM, 231 sol, in vitro): 1.1; R value (DMSO/fragment) for probe 1 labeling (LMNA Prelamin-A/C; P02545_K135, 50 uM, 231 sol, in vitro): 0.9 |
| 1.6 | 0.8 | 1.0 | O=C(Oc1c(F)c(F)c(F)c(F)c1F)C1CCN(C(=O)OCc2ccccc2)CC1 [fragment 24, 1-Benzyl 4-(pentafluorophenyl) piperidine-1,4-dicarboxylate] | – | – | – | – |
| 1.9 | – | – | O=C(Oc1c(F)c(F)c(F)c(F)c1F)c1ccc2ccccc2n1 [fragment 25, Pentafluorophenyl quinoline-2-carboxylate] | – | – | – | isoTOP-ABPP reactivity ratio at lysine P02545_K135 (LMNA Prelamin-A/C; 50 uM, 231 sol, in vitro): 0.9 |
| 1.2 | 1.1 | 2.8 | O=C(CCc1coc2cc(F)ccc2c1=O)Oc1c(F)c(F)c(F)c(F)c1F [fragment 26, Pentafluorophenyl 3-(7-fluoro-4-oxo-4H-chromen-3-yl)propanoate] | – | – | – | isoTOP-ABPP reactivity ratio at lysine Q92600_K230 ([2]; 231 sol): 1.2 |
| 5.7 | 1.1 | 2.5 | O=C(CN1C(=O)c2ccccc2C1=O)Oc1c(F)c(F)c(F)c(F)c1F [fragment 27, Pentafluorophenyl 2-(1,3-dioxoisoindolin-2-yl)acetate] | – | – | – | – |
| 1.4 | 1.2 | 1.0 | CCn1cc(C(=O)Oc2c(F)c(F)c(F)c(F)c2F)c(=O)c2ccc(C)nc21 [fragment 28, Pentafluorophenyl 1-ethyl-7-methyl-4-oxo-1,4-dihydro-1,8-naphthyridine-3-carboxylate] | – | – | – | – |
| – | – | – | O=C(Oc1ccc([N+](=O)[O-])cc1[N+](=O)[O-])c1ccc2ccccc2n1 [fragment 35, 2,4-Dinitrophenyl quinoline-2-carboxylate] | 0.9 | 1.0 | 0.7 | isoTOP-ABPP ratio (R) at liganded lysine P42345_K2066 ([3]; 50 uM, in vitro, sol, 231): 1.1 |
| – | – | – | O=C(Oc1ccc([N+](=O)[O-])cc1[N+](=O)[O-])c1ccc(Oc2ccccc2)cc1 [fragment 39, 2,4-Dinitrophenyl 4-phenoxybenzoate] | 0.8 | 0.9 | 1.0 | isoTOP-ABPP ratio (R) at liganded lysine Q9NZ08_K685 ([1]; 50 uM, in vitro): 1.0 |
| – | – | – | CC(C)(C)OC(=O)NCCCC(=O)Oc1ccc([N+](=O)[O-])cc1[N+](=O)[O-] [fragment 41, 2,4-Dinitrophenyl 4-((tert-butoxycarbonyl)amino)butanoate] | 2.6 | 1.0 | 1.1 | isoTOP-ABPP ratio (R) at liganded lysine Q9NZ08_K685 ([1]; 50 uM, in vitro): 1.3 |
| – | – | – | O=C(Oc1ccc([N+](=O)[O-])cc1[N+](=O)[O-])C(c1ccccc1)(c1ccccc1)c1ccccc1 [fragment 42, 2,4-Dinitrophenyl 2,2,2-triphenylacetate] | 0.8 | 1.0 | 1.0 | isoTOP-ABPP ratio (R) at liganded lysine Q9NZ08_K685 ([1]; 50 uM, in vitro): 1.0 |
| – | – | – | O=C(Oc1c(F)c(F)cc(F)c1F)c1cc(C(F)(F)F)cc(C(F)(F)F)c1 [fragment 48, 2,3,5,6-Tetrafluorophenyl 3,5-bis(trifluoromethyl)benzoate] | – | – | – | isoTOP-ABPP ratio, lysine Q9NZ08_K685 ([1]; 50 uM_231_sol_in vitro): 1.5; isoTOP-ABPP ratio, lysine Q9Y5K5_K323 ([4]; 50 uM_231_sol_in vitro): 0.9; isoTOP-ABPP ratio, lysine P42345_K2066 ([3]; 50 uM_231_sol_in vitro): 1.0; isoTOP-ABPP ratio, lysine P02545_K135 (LMNA Prelamin-A/C; 50 uM_231_sol_in vitro): 1.0 |
